Tested on: T24 cell line
Test: Cytotoxicity MTS assay, T24 cell line
Assay type: cell-based
Details: for IC50: MTS assay, 24 h exposure; for OD490 Mean / OD490 Well 1 / OD490 Well 2 / OD490 Well 3: T24 cell line
Description: The positive compounds (IC50 < 100 μM) obtained from the primary Eg5 motor protein ATPase assay were tested for antiproliferative activity in vitro against Caco-2 cell line, Hela cell line, L929 cell line and T24 cell line by performing MTS assay. Cells were introduced into 96-well plates at a density of 1000 cells per well. After 24 h incubation, the cells were exposed with compounds at final concentrations ranging from 0.5 to 100 µM for 24 h. DMSO was used at a final concentration of 0.025% as blank control, monastrol was used as the positive control. Then 20 µL (CellTiter 96® AQueous One Solution Promega, Madison, WI, USA) reagent was added in each well. After 2 h at 37 °C in a 80% humidified, 5% CO2 atmosphere, the absorbance at 490 nm was recorded using a microplate reader (BIO-RAD iMark^TM). The results were obtained in three independent duplicate experiments. The primary data were shown in Supplementary Materials Tables S4–S7. The IC50 values for these compounds were calculated from a non-linear regression graph plotted between the percentage of cell viability and concentration with SPSS17.0 software.

Compound: CCOC(=O)c1[nH]c(C2NC(=O)NC(C)=C2C(=O)Nc2ccc(Cl)cc2)c(C(=O)OCC)c1C (stereo not shown) [D7]
- IC50: > 150 µM
- OD490 Mean (0.5μM, first assay): 1.2446
- OD490 Well 1 (0.5μM, first assay): 1.2491
- OD490 Well 2 (0.5μM, first assay): 1.2874
- OD490 Well 3 (0.5μM, first assay): 1.1973
- OD490 Mean (1μM, first assay): 1.5295
- OD490 Well 1 (1μM, first assay): 1.4588
- OD490 Well 2 (1μM, first assay): 1.7975
- OD490 Well 3 (1μM, first assay): 1.3323
- OD490 Mean (10μM, first assay): 1.4981
- OD490 Well 1 (10μM, first assay): 1.4996
- OD490 Well 2 (10μM, first assay): 1.6104
- OD490 Well 3 (10μM, first assay): 1.3842
- OD490 Mean (25μM, first assay): 1.5238
- OD490 Well 1 (25μM, first assay): 1.6186
- OD490 Well 2 (25μM, first assay): 1.5573
- OD490 Well 3 (25μM, first assay): 1.3956
- OD490 Mean (50μM, first assay): 1.3341
- OD490 Well 1 (50μM, first assay): 1.3613
- OD490 Well 2 (50μM, first assay): 1.2657
- OD490 Well 3 (50μM, first assay): 1.3754
- OD490 Mean (100μM, first assay): 1.4451
- OD490 Well 1 (100μM, first assay): 1.4704
- OD490 Well 2 (100μM, first assay): 1.5023
- OD490 Well 3 (100μM, first assay): 1.3625

Compound: COC(=O)c1[nH]c(C2NC(=S)NC(C)=C2C(=O)c2ccccc2)c(C(=O)OC)c1C (stereo not shown) [D14]
- IC50: > 150 µM
- OD490 Mean (0.5μM, first assay): 1.1342
- OD490 Well 1 (0.5μM, first assay): 1.0996
- OD490 Well 2 (0.5μM, first assay): 1.1541
- OD490 Well 3 (0.5μM, first assay): 1.1489
- OD490 Mean (1μM, first assay): 1.3301
- OD490 Well 1 (1μM, first assay): 1.2266
- OD490 Well 2 (1μM, first assay): 1.4478
- OD490 Well 3 (1μM, first assay): 1.3160
- OD490 Mean (10μM, first assay): 1.2661
- OD490 Well 1 (10μM, first assay): 1.2502
- OD490 Well 2 (10μM, first assay): 1.2630
- OD490 Well 3 (10μM, first assay): 1.2850
- OD490 Mean (25μM, first assay): 1.2456
- OD490 Well 1 (25μM, first assay): 1.2555
- OD490 Well 2 (25μM, first assay): 1.2167
- OD490 Well 3 (25μM, first assay): 1.2646
- OD490 Mean (50μM, first assay): 1.2309
- OD490 Well 1 (50μM, first assay): 1.2932
- OD490 Well 2 (50μM, first assay): 1.1700
- OD490 Well 3 (50μM, first assay): 1.2295
- OD490 Mean (100μM, first assay): 1.4227
- OD490 Well 1 (100μM, first assay): 1.3732
- OD490 Well 2 (100μM, first assay): 1.4320
- OD490 Well 3 (100μM, first assay): 1.4629

Compound: CCOC(=O)c1c(C2NC(=O)NC(C)=C2C(=O)Nc2ccccc2)[nH]c(C(=O)OC)c1C (stereo not shown) [D10]
- IC50: > 150 µM
- OD490 Mean (0.5μM, first assay): 1.3759
- OD490 Well 1 (0.5μM, first assay): 1.3871
- OD490 Well 2 (0.5μM, first assay): 1.3651
- OD490 Well 3 (0.5μM, first assay): 1.3756
- OD490 Mean (1μM, first assay): 1.3764
- OD490 Well 1 (1μM, first assay): 1.2835
- OD490 Well 2 (1μM, first assay): 1.4515
- OD490 Well 3 (1μM, first assay): 1.3943
- OD490 Mean (10μM, first assay): 1.4610
- OD490 Well 1 (10μM, first assay): 1.3272
- OD490 Well 2 (10μM, first assay): 1.6117
- OD490 Well 3 (10μM, first assay): 1.4442
- OD490 Mean (25μM, first assay): 1.4209
- OD490 Well 1 (25μM, first assay): 1.3594
- OD490 Well 2 (25μM, first assay): 1.6346
- OD490 Well 3 (25μM, first assay): 1.2686
- OD490 Mean (50μM, first assay): 1.2169
- OD490 Well 1 (50μM, first assay): 1.1849
- OD490 Well 2 (50μM, first assay): 1.3216
- OD490 Well 3 (50μM, first assay): 1.1441
- OD490 Mean (100μM, first assay): 1.1356
- OD490 Well 1 (100μM, first assay): 1.2013
- OD490 Well 2 (100μM, first assay): 1.0672
- OD490 Well 3 (100μM, first assay): 1.1383

Compound: CCOc1ccccc1C1NC(=S)NC(C)=C1C(=O)Nc1ccc(Cl)cc1 (stereo not shown) [C9]
- IC50 (Homo sapiens, T-24): 103 µM
- OD490 Mean (0.5μM, first assay): 1.7287
- OD490 Well 1 (0.5μM, first assay): 1.7105
- OD490 Well 2 (0.5μM, first assay): 1.7618
- OD490 Well 3 (0.5μM, first assay): 1.7137
- OD490 Mean (0.5μM, second assay): 1.6993
- OD490 Well 1 (0.5μM, second assay): 1.7012
- OD490 Well 2 (0.5μM, second assay): 1.6854
- OD490 Well 3 (0.5μM, second assay): 1.7112
- OD490 Mean (0.5μM, third assay): 1.6796
- OD490 Well 1 (0.5μM, third assay): 1.7151
- OD490 Well 2 (0.5μM, third assay): 1.6985
- OD490 Well 3 (0.5μM, third assay): 1.6252
- OD490 Mean (1μM, first assay): 1.7475
- OD490 Well 1 (1μM, first assay): 1.7891
- OD490 Well 2 (1μM, first assay): 1.7321
- OD490 Well 3 (1μM, first assay): 1.7213
- OD490 Mean (1μM, second assay): 1.6914
- OD490 Well 1 (1μM, second assay): 1.6854
- OD490 Well 2 (1μM, second assay): 1.6687
- OD490 Well 3 (1μM, second assay): 1.7201
- OD490 Mean (1μM, third assay): 1.6844
- OD490 Well 1 (1μM, third assay): 1.6654
- OD490 Well 2 (1μM, third assay): 1.6854
- OD490 Well 3 (1μM, third assay): 1.7023
- OD490 Mean (10μM, first assay): 1.7610
- OD490 Well 1 (10μM, first assay): 1.7529
- OD490 Well 2 (10μM, first assay): 1.7204
- OD490 Well 3 (10μM, first assay): 1.8096
- OD490 Mean (10μM, second assay): 1.6914
- OD490 Well 1 (10μM, second assay): 1.6952
- OD490 Well 2 (10μM, second assay): 1.7032
- OD490 Well 3 (10μM, second assay): 1.6758
- OD490 Mean (10μM, third assay): 1.6899
- OD490 Well 1 (10μM, third assay): 1.6523
- OD490 Well 2 (10μM, third assay): 1.6854
- OD490 Well 3 (10μM, third assay): 1.7320
- OD490 Mean (25μM, first assay): 1.6722
- OD490 Well 1 (25μM, first assay): 1.6737
- OD490 Well 2 (25μM, first assay): 1.6555
- OD490 Well 3 (25μM, first assay): 1.6875
- OD490 Mean (25μM, second assay): 1.5562
- OD490 Well 1 (25μM, second assay): 1.5784
- OD490 Well 2 (25μM, second assay): 1.5687
- OD490 Well 3 (25μM, second assay): 1.5214
- OD490 Mean (25μM, third assay): 1.5261
- OD490 Well 1 (25μM, third assay): 1.5255
- OD490 Well 2 (25μM, third assay): 1.4895
- OD490 Well 3 (25μM, third assay): 1.5632
- OD490 Mean (50μM, first assay): 1.4241
- OD490 Well 1 (50μM, first assay): 1.3950
- OD490 Well 2 (50μM, first assay): 1.4682
- OD490 Well 3 (50μM, first assay): 1.4091
- OD490 Mean (50μM, second assay): 1.2984
- OD490 Well 1 (50μM, second assay): 1.3242
- OD490 Well 2 (50μM, second assay): 1.3021
- OD490 Well 3 (50μM, second assay): 1.2688
- OD490 Mean (50μM, third assay): 1.2717
- OD490 Well 1 (50μM, third assay): 1.2854
- OD490 Well 2 (50μM, third assay): 1.2312
- OD490 Well 3 (50μM, third assay): 1.2985
- OD490 Mean (100μM, first assay): 1.1300
- OD490 Well 1 (100μM, first assay): 1.1347
- OD490 Well 2 (100μM, first assay): 1.0869
- OD490 Well 3 (100μM, first assay): 1.1684
- OD490 Mean (100μM, second assay): 1.0488
- OD490 Well 1 (100μM, second assay): 1.1133
- OD490 Well 2 (100μM, second assay): 1.0101
- OD490 Well 3 (100μM, second assay): 1.0230
- OD490 Mean (100μM, third assay): 1.0526
- OD490 Well 1 (100μM, third assay): 1.0120
- OD490 Well 2 (100μM, third assay): 1.1123
- OD490 Well 3 (100μM, third assay): 1.0334

— publication PMC8037182, “Solvothermal Synthesis of Multiple Dihydropyrimidinones at a Time as Inhibitors of Eg5” (Molecules, 2021)
